One experiment relates to GMC101 worms. Kind of experiment: Western-blot of amyloid aggregation in GMC101 worms. It is filed as in vivo, C. elegans. The following applies: for Aβ aggregation (proteotoxic stress): GMC101, day 1 of adulthood, dox 15 μg/mL, NR 1 mM, AZD 300 nM. The procedure: C. elegans: Worms were lysed by sonication with RIPA buffer containing protease and phosphatase inhibitors (Roche), and analyzed by SDS-PAGE and western blot. The concentration of extracted protein was determined by using the Bio-Rad Protein Assay. Proteins were detected using the following antibodies: anti-β-actin (Sigma), anti-tubulin (Santa Cruz), atp-5, ucr-1 (Oxphos cocktail, Abcam), anti-β-Amyloid, 1-16 (6E10) (BioLegend). In addition to the housekeeping proteins, loading was monitored by Ponceau Red to ensure a homogeneous loading. Pixel intensity was quantified by using ImageJ software. Each immunoblot experiment was repeated at least twice using 3 biological replicates each containing approximately 1000 worms.
During the assays, animals were exposed to Myriocin (dissolved in DMSO) from the egg stage on plates seeded with live HT115 E. coli bacteria. Control plates seeded with the same bacteria were prepared with the corresponding concentrations of DMSO. The day of the experiment (day 1 of adulthood, 3 days after hatching), the GMC101 population was shifted to 25° C. in order to induce the amyloid deposition in the body wall muscle. ˜1000 worms were used for western blotting assays.
Worms were lysed by sonication with RIPA buffer containing protease and phosphatase inhibitors (Roche), and analyzed by western blot. The concentration of extracted protein was determined by the Bio-Rad Protein Assay. Proteins were detected using the following antibodies: anti-β-actin (Sigma) and anti-β-Amyloid (BioLegend). In addition to the housekeeping proteins, loading was monitored by Ponceau Red to ensure a homogeneous loading. The immunoblot experiment employed 3 biological replicates, each containing approximately 1000 worms.
Worms were lysed by sonication with RIPA buffer containing protease and phosphatase inhibitors (Roche), and analyzed by western blot. The concentration of extracted proteins was determined by the Bio-Rad Protein Assay. Proteins were detected using the following antibodies: anti-β-actin (Sigma) and anti-β-Amyloid (BioLegend). In addition to the housekeeping proteins, loading was monitored by Ponceau Red to ensure a homogeneous loading. The immunoblot experiment employed 3 biologicals replicates, each containing approximately 1000 worms.
The GMC101 worms were recovered 24 h after being shifted at 25° C. The population was treated with UA at two different concentrations, ie 20 uM and 50 uM.

For another experiment, the system named is CL2122 worms. Description: Mobility of CL2122 control worms. It is filed as in vivo, C. elegans. The following applies: CL2122, day 1 to 4 and day 8 of adulthood; NR 1 mM, AZD 0.3 μM. The procedure:
Doxycycline was obtained from Sigma-Aldrich and dissolved in water. For experiments, a final concentration of 15 μg/mL was used. Olaparib (AZD2281) was dissolved in DMSO to experimental concentrations of 300 nM. Nicotinamide Riboside triflate (NR) was custom synthesized by Novalix (www.novalix-pharma.com/) and dissolved in water, and used at a final concentration of 1 mM. Compounds were added just before pouring the plates. For phenotyping experiments, parental F0 L4 worms were allowed to reach adulthood and lay eggs on the treatment plates. The deriving F1 worms were therefore exposed to compounds during the full life from eggs until death. For RNA analysis experiments, synchronized L1 worms were exposed to the compounds until harvest. To ensure a permanent exposure to the compound, plates were changed twice a week.
Mobility: C. elegans movement analysis was performed as described, starting from day 1 of adulthood, using the Movement Tracker software. The experiments were repeated at least twice.

The subject of experiment [1] is SH-SY5Y neuroblastoma cell line expressing the APP Swedish K670N/M671L double mutation (APPSwe). Description: Immunostaining of intracellular Aβ deposits in APPSwe SH-SY5Y cells. It is filed as cell-based, human. The procedure:
The SH-SY5Y neuroblastoma cell line expressing the APP Swedish K670N/M671L double mutation (APPSwe) was a kind gift of Prof. Cedazo-Minguez (Karolinska Institute, Sweden). Cells were grown in DMEM/F-12, supplemented with 10% fetal bovine serum (FBS, Gibco), GlutaMAX (100×, Gibco) and penicillin/streptomycin (1×, Gibco). Cells were selected in 4 μg/mL Geneticin® Selective Antibiotic (G418 Sulfate, Sigma) and grown for three generations before experiments with cells plated and passaged at 4×10^3 cells/ml and 60% confluence, respectively. Cells were cultured at 37° C. under a 5% CO2 atmosphere and tested for mycoplasma using Mycoprobe (#CUL001B, R&D systems) following the manufacturer's instructions. Cells were treated with 10 μg/mL dox, NR 1 or 3 mM, ISRIB 0.5 μM (Sigma), as indicated for 24 hours before cell harvesting or fixation. For the immunostaining, cells were fixed with 1× Formal-Fixx (Thermo Scientific) for 15 min. After 15 min permeabilization with 0.1% Triton X-100, cells were blocked in PBS supplemented with 5% fetal bovine serum for 1 hour and immunostained overnight, at 4° C., with the anti-β-Amyloid 1-42 (1:100, Millipore AB5078P). The secondary antibody was coupled to the Alexa-488 fluorochrome (Thermo Scientific), and nuclei were stained with DAPI (Invitrogen, D1306). After washing in PBS, cell slides were mounted with Dako mounting medium (Dako, S3023) and examined with a Zeiss LSM 700 confocal microscope (Carl Zeiss MicroImaging) equipped with a Plan-Apochromat 40×/1.3 NA oil immersion objective lens using a 488 nm laser. Laser power was set at the lowest intensity allowing clear visualization of the signal. Imaging settings were maintained with the same parameters for comparison between different experimental conditions.
The SH-SY5Y neuroblastoma cell line expresses the APP Swedish K670N/M671L double mutation (APPSwe) (Zheng et al., 2011) and accumulates intracellular Aβ amyloid aggregates. Cells were grown in DMEM/F-12, supplemented with 10% fetal bovine serum (FBS, Gibco), GlutaMAX (100×, Gibco) and penicillin/streptomycin (1×, Gibco). Cells were selected in 4 μg/mL Geneticin® Selective Antibiotic (G418 Sulfate, Sigma) and grown for three generations before experiments with cells plated and passaged at 4×10{right arrow over ( )}3 cells/ml and 60% confluence, respectively. Cells were cultured at 37° C. under a 5% CO2 atmosphere and tested for mycoplasma using Mycoprobe (#CUL001B, R&D systems), following the manufacturer's instructions. Myriocin was dissolved in DMSO.
Cells were treated with 10 uM Myriocin and Fumonisin B1 for 24 hours before harvesting or fixation (FIG. 3A). For immunostaining, cells were fixed with 1× Formal-Fixx (Thermo Scientific) for 15 min. […]

“Also recorded” adds a separate entry of the source.

For the compound `O=C(c1cc(Cc2n[nH]c(=O)c3ccccc23)ccc1F)N1CCN(C(=O)C2CC2)CC1` [AZD, Olaparib, reference compound], the “Aβ aggregation (proteotoxic stress)” value with GMC101 worms was “reduced proteotoxic stress”. Further, the “fitness (mobility) of control strain” value in the experiment with CL2122 worms was “only improved CL2122 fitness during aging”.
`CCCCCCC(=O)CCCCCC/C=C/C[C@@H](O)[C@H](O)[C@@](N)(CO)C(=O)O` [Myriocin, (E,2S,3R,4R)-2-amino-3,4-dihydroxy-2-(hydroxymethyl)-14-oxoicos-6-enoic acid]: the “accumulation of amyloid-β aggregates” value in the experiment on GMC101 worms (GMC101, Day 1 of adulthood, Myriocin 5 uM and 10 uM) is “dose-dependently decreased; also recorded: dose-dependent reduction”. Besides, the “intracellular Aβ deposits” value in experiment [1] (10 uM, 24 hours) was “significantly reduced; also recorded: markedly reduced”.
With `NC(=O)c1ccc[n+]([C@@H]2O[C@H](CO)[C@@H](O)[C@H]2O)c1` [NR, Nicotinamide Riboside triflate], the “Aβ aggregation (proteotoxic stress)” value with GMC101 worms is reported as “reduced proteotoxic stress”. Also, the “fitness (mobility) of control strain” value with CL2122 worms is given as “only improved CL2122 fitness during aging”. The “intracellular Aβ deposits (anti-β-Amyloid 1-42 immunodetection)” value in experiment [1] (24 h, dox 10 μg/mL, NR 3 mM) is listed as “remarkable reduction”.

The record behind these values is patent US20220110902A1, “Methods of treating amyloid-beta peptide diseases” (Ecole Polytechnique Federale de Lausanne, priority 2016, published 2022).
